In general, IC50 refers to the point on the concentration scale where inhibition reaches its midpoint. A high value points to weaker potency in that assay. As a reminder, the Km is the concentration of substrate that gives half-maximal velocity.

The text below walks through data of publication PMC11937972 (JACS Au, 2025).

Like-named read-outs stand apart in the source and are kept apart here.

One data set concerns the target T1, human URAT1 (hURAT1) (Homo sapiens, UniProt Q96S37).
T1 sequence (Q96S37 1-553): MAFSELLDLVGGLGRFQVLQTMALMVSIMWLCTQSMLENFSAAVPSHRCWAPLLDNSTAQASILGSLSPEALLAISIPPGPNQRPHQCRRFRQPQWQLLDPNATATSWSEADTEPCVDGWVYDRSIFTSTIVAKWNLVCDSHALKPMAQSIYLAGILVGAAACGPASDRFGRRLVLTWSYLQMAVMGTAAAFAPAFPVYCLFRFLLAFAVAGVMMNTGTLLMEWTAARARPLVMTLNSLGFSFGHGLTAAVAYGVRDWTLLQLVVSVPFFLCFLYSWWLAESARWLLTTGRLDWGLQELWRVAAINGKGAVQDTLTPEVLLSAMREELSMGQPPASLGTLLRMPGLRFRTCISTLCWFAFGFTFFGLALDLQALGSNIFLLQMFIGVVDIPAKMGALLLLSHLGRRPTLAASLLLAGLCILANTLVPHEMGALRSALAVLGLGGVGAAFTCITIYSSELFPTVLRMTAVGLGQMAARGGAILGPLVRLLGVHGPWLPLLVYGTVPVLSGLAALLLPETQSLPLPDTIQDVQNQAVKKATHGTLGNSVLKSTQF
The data set can be described thus: inhibition of urate uptake in transfected HEK293T cells. The data set is classed as cell-based.

In data set [1] the target is T2, URAT1^EM (humanized rat URAT1, rURAT1-3M) (Rattus norvegicus, UniProt Q3ZAV1, M481I/N35S/Y365F).
T2 sequence (Q3ZAV1 1-553 N35S/Y365F/M481I): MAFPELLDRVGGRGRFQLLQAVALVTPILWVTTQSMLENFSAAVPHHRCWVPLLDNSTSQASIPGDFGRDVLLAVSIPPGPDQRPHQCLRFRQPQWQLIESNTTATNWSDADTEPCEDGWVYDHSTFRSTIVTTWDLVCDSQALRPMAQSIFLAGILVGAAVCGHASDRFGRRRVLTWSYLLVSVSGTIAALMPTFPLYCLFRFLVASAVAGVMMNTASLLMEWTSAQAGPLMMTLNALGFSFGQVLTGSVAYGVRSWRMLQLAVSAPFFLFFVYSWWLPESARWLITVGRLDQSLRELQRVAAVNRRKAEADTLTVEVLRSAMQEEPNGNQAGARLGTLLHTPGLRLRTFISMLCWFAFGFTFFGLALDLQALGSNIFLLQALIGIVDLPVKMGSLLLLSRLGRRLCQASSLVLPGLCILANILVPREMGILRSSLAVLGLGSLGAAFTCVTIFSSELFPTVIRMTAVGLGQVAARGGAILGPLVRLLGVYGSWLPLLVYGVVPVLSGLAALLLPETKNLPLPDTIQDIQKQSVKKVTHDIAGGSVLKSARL
Description: cryo-EM structure at […] Å. The data set is classed as cell-based.

In data set [2] the target is T2, URAT1^EM (humanized rat URAT1, rURAT1-3M). Description: cell-based.
Substrate in data set [3]: O=c1[nH]c(=O)c2[nH]c(=O)[nH]c2[nH]1
The data set can be described thus: concentration-dependent urate uptake in HEK293T cells, Km. The data set is classed as cell-based, Rattus norvegicus.

Substrate in data set [4]: O=c1[nH]c(=O)c2[nH]c(=O)[nH]c2[nH]1
Described as above. The data set is classed as cell-based, Homo sapiens.

For `CC(C)(Sc1ccncc1-c1ccc(C#N)c2ccccc12)C(=O)O` [VER, verinurad], the IC50 result on human URAT1 (hURAT1) is “Inhibition of human URAT1 WT and variants by verinurad”; in data set [1], 150 nM.
In data set [2], `CCc1oc2ccccc2c1C(=O)c1cc(Br)c(O)c(Br)c1` [BEN, benzbromarone] came in with a half-inhibitory concentration (IC50) of 425 nM.

B1: URAT1^EM (humanized rat URAT1, rURAT1-3M) (Rattus norvegicus; M481I/N35S/Y365F) (protein)
chain: MAFPELLDRVGGRGRFQLLQAVALVTPILWVTTQSMLENFSAAVPHHRCWVPLLDNSTSQASIPGDFGRDVLLAVSIPPGPDQRPHQCLRFRQPQWQLIESNTTATNWSDADTEPCEDGWVYDHSTFRSTIVTTWDLVCDSQALRPMAQSIFLAGILVGAAVCGHASDRFGRRRVLTWSYLLVSVSGTIAALMPTFPLYCLFRFLVASAVAGVMMNTASLLMEWTSAQAGPLMMTLNALGFSFGQVLTGSVAYGVRSWRMLQLAVSAPFFLFFVYSWWLPESARWLITVGRLDQSLRELQRVAAVNRRKAEADTLTVEVLRSAMQEEPNGNQAGARLGTLLHTPGLRLRTFISMLCWFAFGFTFFGLALDLQALGSNIFLLQALIGIVDLPVKMGSLLLLSRLGRRLCQASSLVLPGLCILANILVPREMGILRSSLAVLGLGSLGAAFTCVTIFSSELFPTVIRMTAVGLGQVAARGGAILGPLVRLLGVYGSWLPLLVYGVVPVLSGLAALLLPETKNLPLPDTIQDIQKQSVKKVTHDIAGGSVLKSARL
Regarding B1, in data set [3], the Km was 203 µM.

B2: human URAT1 (hURAT1) (Homo sapiens) (protein)
chain: MAFSELLDLVGGLGRFQVLQTMALMVSIMWLCTQSMLENFSAAVPSHRCWAPLLDNSTAQASILGSLSPEALLAISIPPGPNQRPHQCRRFRQPQWQLLDPNATATSWSEADTEPCVDGWVYDRSIFTSTIVAKWNLVCDSHALKPMAQSIYLAGILVGAAACGPASDRFGRRLVLTWSYLQMAVMGTAAAFAPAFPVYCLFRFLLAFAVAGVMMNTGTLLMEWTAARARPLVMTLNSLGFSFGHGLTAAVAYGVRDWTLLQLVVSVPFFLCFLYSWWLAESARWLLTTGRLDWGLQELWRVAAINGKGAVQDTLTPEVLLSAMREELSMGQPPASLGTLLRMPGLRFRTCISTLCWFAFGFTFFGLALDLQALGSNIFLLQMFIGVVDIPAKMGALLLLSHLGRRPTLAASLLLAGLCILANTLVPHEMGALRSALAVLGLGGVGAAFTCITIYSSELFPTVLRMTAVGLGQMAARGGAILGPLVRLLGVHGPWLPLLVYGTVPVLSGLAALLLPETQSLPLPDTIQDVQNQAVKKATHGTLGNSVLKSTQF
B2: in data set [4], the Km came to 80 µM.
